Experimental data published in patent US20230013453A1, “RESVERATROL SKIN PREPARATION” (priority 2021, published 2023).

Assay: specification test of 98% trans-resveratrol (FIG. 5): solubility
Type: physicochemical
Conditions: extracted or sieved 98% trans-resveratrol
From the text: It may be in powder form and either white or light yellow in color. […] It is also devoid of any significant amounts of metals, bacteria or other adulterants or additives.

Oc1ccc(/C=C/c2cc(O)cc(O)c2)cc1 [trans-resveratrol]
solubility in ethanol: soluble in ethanol
